# From ChEMBL document CHEMBL5724914, “Linking interpersonal differences in gut microbiota composition and drug biotransformation activity” (2024)
# Conditions: human gut metagenome, 24 h, 2 µM
# Further: call rule not given here.
row,Structure (SMILES),Bacterial Biotransformation
1,CCN1CCCC1CNC(=O)c1cc(S(N)(=O)=O)ccc1OC (stereo not given) [SULPIRIDE],Compound metabolized
2,CC(=O)CC(c1ccccc1)c1c(O)c2ccccc2oc1=O (stereo not given) [WARFARIN],Compound metabolized

# Assay: (§1) The drug is tested on WLS-170 corresponding to human gut metagenome with ENA study accession number: PRJEB37062 and ENA sample accession number: ERS12561762 for biotransformation under anaerobic condition. The drug concentrations were measured over 9 timepoints collected between 0 and 24 hours of incubation by liquid-chromatography-coupled mass spectrometry (LC–MS)
# Conditions: 2 µM
row,Structure (SMILES),Bacterial Biotransformation
1,CCN1CCCC1CNC(=O)c1cc(S(N)(=O)=O)ccc1OC (stereo not given) [SULPIRIDE],Compound metabolized
2,CC(=O)CC(c1ccccc1)c1c(O)c2ccccc2oc1=O (stereo not given) [WARFARIN],Compound metabolized

# Conditions: human gut metagenome, 24 h, 2 µM
# Remark: another data set of the same source
row,Structure (SMILES),Bacterial Biotransformation
1,CCN1CCCC1CNC(=O)c1cc(S(N)(=O)=O)ccc1OC (stereo not given) [SULPIRIDE],Compound NOT metabolized
2,CC(=O)CC(c1ccccc1)c1c(O)c2ccccc2oc1=O (stereo not given) [WARFARIN],Compound metabolized

# Assay: as §1, with “Z-030” for “WLS-170”, “mouse” for “human”, “ERS12561829” for “ERS12561762”
# Conditions: 2 µM
row,Structure (SMILES),Bacterial Biotransformation
1,CCN1CCCC1CNC(=O)c1cc(S(N)(=O)=O)ccc1OC (stereo not given) [SULPIRIDE],Compound NOT metabolized
2,CC(=O)CC(c1ccccc1)c1c(O)c2ccccc2oc1=O (stereo not given) [WARFARIN],Compound NOT metabolized

# Assay: as §1, with “Z-024” for “WLS-170”, “pig” for “human”, “ERS12561823” for “ERS12561762”
# Conditions: 2 µM
row,Structure (SMILES),Bacterial Biotransformation
1,CCN1CCCC1CNC(=O)c1cc(S(N)(=O)=O)ccc1OC (stereo not given) [SULPIRIDE],Compound NOT metabolized
2,CC(=O)CC(c1ccccc1)c1c(O)c2ccccc2oc1=O (stereo not given) [WARFARIN],Compound metabolized

# Assay: as §1, with “Z-001” for “WLS-170”, “mouse” for “human”, “ERS12561801” for “ERS12561762”
# Conditions: 2 µM
row,Structure (SMILES),Bacterial Biotransformation
1,CCN1CCCC1CNC(=O)c1cc(S(N)(=O)=O)ccc1OC (stereo not given) [SULPIRIDE],Compound metabolized
2,CC(=O)CC(c1ccccc1)c1c(O)c2ccccc2oc1=O (stereo not given) [WARFARIN],Compound NOT metabolized

# Conditions: human gut metagenome, 24 h, 2 µM
# Remark: another data set of the same source
row,Structure (SMILES),Bacterial Biotransformation
1,CCN1CCCC1CNC(=O)c1cc(S(N)(=O)=O)ccc1OC (stereo not given) [SULPIRIDE],Compound metabolized
2,CC(=O)CC(c1ccccc1)c1c(O)c2ccccc2oc1=O (stereo not given) [WARFARIN],Compound metabolized

# Assay: as §1, with “Z-002” for “WLS-170”, “rabbit” for “human”, “ERS12561802” for “ERS12561762”
# Conditions: 2 µM
row,Structure (SMILES),Bacterial Biotransformation
1,CCN1CCCC1CNC(=O)c1cc(S(N)(=O)=O)ccc1OC (stereo not given) [SULPIRIDE],Compound metabolized
2,CC(=O)CC(c1ccccc1)c1c(O)c2ccccc2oc1=O (stereo not given) [WARFARIN],Compound metabolized

# Assay: as §1, with “Z-027” for “WLS-170”, “to” for “to human gut”, “ERS12561826” for “ERS12561762”
# Conditions: 2 µM
row,Structure (SMILES),Bacterial Biotransformation
1,CCN1CCCC1CNC(=O)c1cc(S(N)(=O)=O)ccc1OC (stereo not given) [SULPIRIDE],Compound NOT metabolized
2,CC(=O)CC(c1ccccc1)c1c(O)c2ccccc2oc1=O (stereo not given) [WARFARIN],Compound NOT metabolized

# Assay: as §1, with “Z-028” for “WLS-170”, “mouse” for “human”, “ERS12561827” for “ERS12561762”
# Conditions: 2 µM
row,Structure (SMILES),Bacterial Biotransformation
1,CCN1CCCC1CNC(=O)c1cc(S(N)(=O)=O)ccc1OC (stereo not given) [SULPIRIDE],Compound NOT metabolized
2,CC(=O)CC(c1ccccc1)c1c(O)c2ccccc2oc1=O (stereo not given) [WARFARIN],Compound metabolized

# Assay: as §1, with “Z-004” for “WLS-170”, “to” for “to human gut”, “ERS12561804” for “ERS12561762”
# Conditions: 2 µM
row,Structure (SMILES),Bacterial Biotransformation
1,CCN1CCCC1CNC(=O)c1cc(S(N)(=O)=O)ccc1OC (stereo not given) [SULPIRIDE],Compound metabolized
2,CC(=O)CC(c1ccccc1)c1c(O)c2ccccc2oc1=O (stereo not given) [WARFARIN],Compound metabolized

# Assay: as §1, with “Z-010” for “WLS-170”, “to” for “to human gut”, “ERS12561810” for “ERS12561762”
# Conditions: 2 µM
row,Structure (SMILES),Bacterial Biotransformation
1,CCN1CCCC1CNC(=O)c1cc(S(N)(=O)=O)ccc1OC (stereo not given) [SULPIRIDE],Compound metabolized
2,CC(=O)CC(c1ccccc1)c1c(O)c2ccccc2oc1=O (stereo not given) [WARFARIN],Compound metabolized

# Conditions: human gut metagenome, 24 h, 2 µM
# Remark: another data set of the same source
row,Structure (SMILES),Bacterial Biotransformation
1,CCN1CCCC1CNC(=O)c1cc(S(N)(=O)=O)ccc1OC (stereo not given) [SULPIRIDE],Compound NOT metabolized
2,CC(=O)CC(c1ccccc1)c1c(O)c2ccccc2oc1=O (stereo not given) [WARFARIN],Compound metabolized

# Assay: as §1, with “WLS-090” for “WLS-170”, “ERS12561753” for “ERS12561762”
# Conditions: 2 µM
row,Structure (SMILES),Bacterial Biotransformation
1,CCN1CCCC1CNC(=O)c1cc(S(N)(=O)=O)ccc1OC (stereo not given) [SULPIRIDE],Compound metabolized
2,CC(=O)CC(c1ccccc1)c1c(O)c2ccccc2oc1=O (stereo not given) [WARFARIN],Compound metabolized

# Conditions: human gut metagenome, 24 h, 2 µM
# Remark: another data set of the same source
row,Structure (SMILES),Bacterial Biotransformation
1,CCN1CCCC1CNC(=O)c1cc(S(N)(=O)=O)ccc1OC (stereo not given) [SULPIRIDE],Compound metabolized
2,CC(=O)CC(c1ccccc1)c1c(O)c2ccccc2oc1=O (stereo not given) [WARFARIN],Compound metabolized

# Assay: as §1, with “WLS-370” for “WLS-170”, “ERS12561793” for “ERS12561762”
# Conditions: 2 µM
row,Structure (SMILES),Bacterial Biotransformation
1,CCN1CCCC1CNC(=O)c1cc(S(N)(=O)=O)ccc1OC (stereo not given) [SULPIRIDE],Compound NOT metabolized
2,CC(=O)CC(c1ccccc1)c1c(O)c2ccccc2oc1=O (stereo not given) [WARFARIN],Compound metabolized

# Conditions: human gut metagenome, 24 h, 2 µM
# Remark: another data set of the same source
row,Structure (SMILES),Bacterial Biotransformation
1,CCN1CCCC1CNC(=O)c1cc(S(N)(=O)=O)ccc1OC (stereo not given) [SULPIRIDE],Compound metabolized
2,CC(=O)CC(c1ccccc1)c1c(O)c2ccccc2oc1=O (stereo not given) [WARFARIN],Compound metabolized

# Conditions: human gut metagenome, 24 h, 2 µM
# Remark: another data set of the same source
row,Structure (SMILES),Bacterial Biotransformation
1,CCN1CCCC1CNC(=O)c1cc(S(N)(=O)=O)ccc1OC (stereo not given) [SULPIRIDE],Compound metabolized
2,CC(=O)CC(c1ccccc1)c1c(O)c2ccccc2oc1=O (stereo not given) [WARFARIN],Compound metabolized

# Assay: as §1, with “Z-020” for “WLS-170”, “rabbit” for “human”, “ERS12561819” for “ERS12561762”
# Conditions: 2 µM
row,Structure (SMILES),Bacterial Biotransformation
1,CCN1CCCC1CNC(=O)c1cc(S(N)(=O)=O)ccc1OC (stereo not given) [SULPIRIDE],Compound NOT metabolized
2,CC(=O)CC(c1ccccc1)c1c(O)c2ccccc2oc1=O (stereo not given) [WARFARIN],Compound metabolized

# Assay: as §1, with “Z-026” for “WLS-170”, “to” for “to human gut”, “ERS12561825” for “ERS12561762”
# Conditions: 2 µM
row,Structure (SMILES),Bacterial Biotransformation
1,CCN1CCCC1CNC(=O)c1cc(S(N)(=O)=O)ccc1OC (stereo not given) [SULPIRIDE],Compound NOT metabolized
2,CC(=O)CC(c1ccccc1)c1c(O)c2ccccc2oc1=O (stereo not given) [WARFARIN],Compound NOT metabolized
